Measured values taken from US11130741B2 (Bioimics AB, priority 2016, dated 2021).
≈ marks a conversion by molar mass, not a printed value. Like-named read-outs stand apart in the source and are kept apart here.

Key:
S. aureus ATCC 29213 = test: MIC, S. aureus ATCC 29213 + 50% HS; format: cell-based; details: Staphylococcus aureus, ATCC29213
M. phlei ATCC 11758 = test: MIC, M. phlei ATCC 11758; format: cell-based; details: Mycolicibacterium phlei, ATCC11758
[1] = system: Staphylococcus aureus subsp. aureus (ATCC29213); test: MIC, broth microdilution (CLSI), Staphylococcus aureus subsp. aureus ATCC29213; format: cell-based
S. pneumoniae ATCC 49619 = test: MIC, S. pneumoniae ATCC 49619; format: cell-based; details: Streptococcus pneumoniae, ATCC49619
N. gonorrhoeae 612501 = test: MIC, N. gonorrhoeae 612501; format: cell-based; details: Neisseria gonorrhoeae
[2] = system: Enterococcus faecalis (ATCC29212); test: MIC, broth microdilution (CLSI), Enterococcus faecalis ATCC29212; format: cell-based; details: read-out: MIC E. faecalis ATCC 29212
[3] = system: P. aeruginosa NTUH-974 (MDR); test: MIC, P. aeruginosa NTUH-974 (MDR); format: cell-based
[4] = system: S. aureus MRSA ATCC 33591; test: MIC, S. aureus MRSA ATCC 33591; format: cell-based; details: Staphylococcus aureus; read-out: MIC S. aureus MRSA ATCC 33591
E. coli JW5503 = test: MIC, E. coli JW5503; format: cell-based; details: Escherichia coli, JW5503, read-out: MIC E. coli JW5503
M. fortuitum ATCC 110 = test: MIC, M. fortuitum ATCC 110; format: cell-based; details: Mycolicibacterium fortuitum, ATCC110
[5] = system: E. coli RNase P RNA, M1 RNA; test: Inhibition of bacterial RNase P activity, IC50 determination (cleavage of pATSerUG by M1 RNA); format: biochemical; details: NI = No inhibition
[6] = system: Escherichia coli (ATCC25922); test: MIC, broth microdilution (CLSI), Escherichia coli ATCC25922
H. influenzae ATCC 49247 = test: MIC, H. influenzae ATCC 49247; format: cell-based; details: Haemophilus influenzae, ATCC49247
[7] = system: S. aureus USA300 MRSA BAA 1717; test: MIC, S. aureus USA300 MRSA BAA 1717; format: cell-based; details: Staphylococcus aureus
E. faecium ATCC 700221 = test: MIC, E. faecium ATCC 700221; format: cell-based; details: Enterococcus faecium, ATCC700221; read-out: MIC E. faecium ATCC 700221
K. pneumoniae ATCC 43816 = test: MIC, K. pneumoniae ATCC 43816; format: cell-based; details: Klebsiella pneumoniae, ATCC43816
[8] = system: Pseudomonas aeruginosa (ATCC27853); test: microbe, parasite or virus in culture; format: cell-based; details: read-out: MIC P. aeruginosa ATCC 27853
H. pylori ATCC 43504 = test: MIC, H. pylori ATCC 43504; format: cell-based; details: Helicobacter pylori, ATCC43504
A. baumannii ATCC 17978 = test: MIC, A. baumannii ATCC 17978; format: cell-based; details: Acinetobacter baumannii, ATCC17978
[9] = system: Staphylococcus aureus (ATCC25923); test: MIC, broth microdilution (CLSI), Staphylococcus aureus ATCC25923; details: ATCC25923, read-out: S. aureus ("Clinical") MIC
Description: Initial minimal inhibitory concentration (MIC) tests were made on two bacterial strains: • Escherichia coli (ATCC25922) • Staphylococcus aureus (ATCC25923).
Minimal Inhibitory Concentration (MIC)
MIC values were determined using the standard broth microdilution procedure based on the guidelines by the Clinical and Laboratory Standards Institute (CLSI). Briefly, the compounds were dissolved in DMSO to 10 mM. They were diluted in cation-adjusted Mueller-Hinton broth (CAMHB) to four times the highest concentration tested. A serial 2-fold dilution in CAMHB was done in microdilution plates. The inoculum of bacterial strain to be tested was prepared by making a suspension of colonies from an 18 to 24 hours old plate in CAMHB. The inoculum was diluted so that, after inoculation, each well contained approximately 5×10^5 CFU/mL. To a volume of 50 μl compound in CAMHB an equal volume of inoculum was added. The tray was sealed in a plastic bag and incubated at 35° C. for 16 to 20 hours. To aid in the detection of growth the dye resazurin was added to a final concentration 0.001% and incubated at room temperature for 1 h. Reduction of resazurin, and therefore bacterial growth, was seen as a change from blue to pink.

[10] = ATCC29213, Table 15, read-out: S. aureus ("wound") (MIC)
[11] = ATCC29213, Table 16, read-out: MIC S. aureus ATCC 29213
[12] = Pseudomonas aeruginosa; read-out: MIC P. aeruginosa NTUH-974 (MDR)
[13] = ATCC25922, read-out: E. coli MIC, Table 15, NI = No inhibition
[14] = ATCC25922, read-out: MIC E. coli ATCC 25922, Table 16
[15] = Pseudomonas aeruginosa, read-out: MIC P. aeruginosa NTUH-974 (MDR)

SMILES	MIC (S. aureus ATCC 29213)	MIC (M. phlei ATCC 11758)	MIC [1, 10]	MIC [1, 11]	MIC (S. pneumoniae ATCC 49619)	MIC (N. gonorrhoeae 612501)	MIC [2]	MIC [3, 12]	MIC [4]	MIC (E. coli JW5503)	MIC (M. fortuitum ATCC 110)	IC50 [5]	MIC [6, 13]	MIC [6, 14]	MIC (H. influenzae ATCC 49247)	MIC (E. faecium ATCC 700221)	MIC (K. pneumoniae ATCC 43816)	MIC [8]	MIC (A. baumannii ATCC 17978)	MIC [9]	other results
CC1CC(C)CN(c2ccc3c(c2)Sc2cc(C(F)(F)F)cc(NC4CCN(CCN)CC4)c2N3)C1.Cl.Cl.Cl (centres unmarked) [compound 274, N-(1-(2-aminoethyl)piperidin-4-yl)-7-(3,5-dimethyl-piperidin-1-yl)-3-(trifluoromethyl)-10H-phenothiazin-1-amine hydrochloride]	16 µg/mL	4 µg/mL	1 µg/mL	1 µg/mL	4 µg/mL	1 µg/mL	2 µg/mL	16 µg/mL	1 µg/mL	8 µg/mL	4 µg/mL	24 µM	8 µg/mL	4 µg/mL	1 µg/mL	1 µg/mL	4 µg/mL	16 µg/mL	4 µg/mL	–	MIC [7]: 1 µg/mL; MIC (H. pylori ATCC 43504): 16 µg/mL
Cl.Cl.NCCNCCC(=O)Nc1cc(C(F)(F)F)cc2c1Nc1ccc(N3CCCC3)cc1S2 [compound 302, 3-((2-aminoethyl)amino)-N-(7-(pyrrolidin-1-yl)-3-(trifluoromethyl)-10H-phenothiazin-1-yl)propanamide hydrochloride]	64 µg/mL	16 µg/mL	32 µg/mL	8 µg/mL	64 µg/mL	8 µg/mL	8 µg/mL	32 µg/mL	8 µg/mL	16 µg/mL	8 µg/mL	3.6 µM	128 µg/mL	16 µg/mL	16 µg/mL	4 µg/mL	16 µg/mL	32 µg/mL	32 µg/mL	–	MIC [7]: 8 µg/mL; MIC (H. pylori ATCC 43504): 32 µg/mL
CC1CCN(c2ccc3c(c2)Sc2cc(C(F)(F)F)cc(NC4CCN(CCN)CC4)c2N3)CC1.Cl.Cl [compound 307, N-(1-(2-aminoethyl)piperidin-4-yl)-7-(4-methyl-piperidin-1-yl)-3-(trifluoromethyl)-10H-phenothiazin-1-amine hydrochloride]	32 µg/mL	8 µg/mL	2 µg/mL	2 µg/mL	8 µg/mL	1 µg/mL	2 µg/mL	16 µg/mL	2 µg/mL	2 µg/mL	4 µg/mL	16 µM	4 µg/mL	4 µg/mL	2 µg/mL	2 µg/mL	4 µg/mL	16 µg/mL	8 µg/mL	–	MIC [7]: 2 µg/mL; MIC (H. pylori ATCC 43504): 16 µg/mL
NCCN1CCC(Nc2cc(C(F)(F)F)cc3c2Nc2ccccc2S3)CC1 [compound 140, N-(1-(2-Aminoethyl)piperidin-4-yl)-3-(trifluoromethyl)-10H-phenothiazin-1-amine]	128 µg/mL	–	8 µg/mL (≈ 19.6 µM)	4 µg/mL (≈ 9.79 µM)	32 µg/mL (≈ 78.3 µM)	2 µg/mL (≈ 4.9 µM)	4 µg/mL (≈ 9.79 µM)	32 µg/mL (≈ 78.3 µM)	4 µg/mL (≈ 9.79 µM)	8 µg/mL (≈ 19.6 µM)	–	8 µM	7 µg/mL (≈ 17.1 µM)	32 µg/mL (≈ 78.3 µM)	8 µg/mL (≈ 19.6 µM)	4 µg/mL (≈ 9.79 µM)	8 µg/mL (≈ 19.6 µM)	64 µg/mL (≈ 157 µM)	8 µg/mL (≈ 19.6 µM)	3 µg/mL (≈ 7.34 µM)	–
NCCCN1c2ccc(-c3cc4ccccc4[nH]3)cc2Sc2cc(C(F)(F)F)ccc21 [compound 245, 3-(3-(1H-indol-2-yl)-7-(trifluoromethyl)-10H-phenothiazin-10-yl)propan-1-amine]	128 µg/mL	–	1 µg/mL (≈ 2.28 µM)	2 µg/mL (≈ 4.55 µM)	16 µg/mL (≈ 36.4 µM)	2 µg/mL (≈ 4.55 µM)	2 µg/mL (≈ 4.55 µM)	64 µg/mL (≈ 146 µM)	2 µg/mL (≈ 4.55 µM)	8 µg/mL (≈ 18.2 µM)	–	1 µM	7 µg/mL (≈ 15.9 µM)	8 µg/mL (≈ 18.2 µM)	4 µg/mL (≈ 9.1 µM)	1 µg/mL (≈ 2.28 µM)	32 µg/mL (≈ 72.8 µM)	> 128 µg/mL	16 µg/mL (≈ 36.4 µM)	2 µg/mL (≈ 4.55 µM)	–
CC(C)NCCCN1c2ccccc2Sc2cc(-c3cc4ccccc4[nH]3)ccc21 [compound 197, 3-(3-(1H-indol-2-yl)-10H-phenothiazin-10-yl)-N-isopropylpropan-1-amine]	128 µg/mL	–	4 µg/mL (≈ 9.67 µM)	2 µg/mL (≈ 4.84 µM)	4 µg/mL (≈ 9.67 µM)	1 µg/mL (≈ 2.42 µM)	2 µg/mL (≈ 4.84 µM)	–	16 µg/mL (≈ 38.7 µM)	4 µg/mL (≈ 9.67 µM)	–	25 µM	–	64 µg/mL (≈ 155 µM)	16 µg/mL (≈ 38.7 µM)	2 µg/mL (≈ 4.84 µM)	> 128 µg/mL	> 128 µg/mL	64 µg/mL (≈ 155 µM)	6 µg/mL (≈ 14.5 µM)	MIC [3, 15]: > 128 µg/mL
NC1CCCC(CNc2cc(C(F)(F)F)cc3c2Nc2ccccc2S3)C1 (centres unmarked) [compound 133, N-((3-Aminocyclohexyl)methyl)-3-(trifluoromethyl)-10H-phenothiazin-1-amine]	128 µg/mL	–	81 µg/mL (≈ 206 µM)	4 µg/mL (≈ 10.2 µM)	32 µg/mL (≈ 81.3 µM)	2 µg/mL (≈ 5.08 µM)	8 µg/mL (≈ 20.3 µM)	–	4 µg/mL (≈ 10.2 µM)	8 µg/mL (≈ 20.3 µM)	–	19 µM	13 µg/mL (≈ 33 µM)	32 µg/mL (≈ 81.3 µM)	16 µg/mL (≈ 40.7 µM)	4 µg/mL (≈ 10.2 µM)	32 µg/mL (≈ 81.3 µM)	128 µg/mL (≈ 325 µM)	16 µg/mL (≈ 40.7 µM)	3 µg/mL (≈ 7.62 µM)	MIC [3, 15]: 128 µg/mL (≈ 325 µM)
CN(C)CCCN1c2ccccc2Sc2cc(-c3cc4ccccc4[nH]3)ccc21 [compound 111, 3-(3-(1H-Indol-2-yl)-10H-phenothiazin-10-yl)-N,N-dimethylpropan-1-amine]	128 µg/mL	–	3 µg/mL (≈ 7.51 µM)	2 µg/mL (≈ 5.01 µM)	8 µg/mL (≈ 20 µM)	2 µg/mL (≈ 5.01 µM)	4 µg/mL (≈ 10 µM)	–	4 µg/mL (≈ 10 µM)	4 µg/mL (≈ 10 µM)	–	~20 µM	> 100 µg/mL	64 µg/mL (≈ 160 µM)	16 µg/mL (≈ 40 µM)	2 µg/mL (≈ 5.01 µM)	> 128 µg/mL	> 128 µg/mL	64 µg/mL (≈ 160 µM)	3 µg/mL (≈ 7.51 µM)	MIC [3, 15]: > 128 µg/mL
